Source: ChEMBL document CHEMBL3217713, “Synthesis and biological evaluation of primaquinechloroquine twin drug: a novel heme-interacting molecule prevents free heme and hydroxyl radical-mediated protein degradation” (Medchemcomm, 2013)
Active and inactive are the calls of the source. The rule behind the calls is not given here.

Assays:
[1] = Antioxidant activity assessed as reduction of Fe(3)-TPTZ to Fe(2)-TPTZ complex after 5 mins by FRAP assay; assay type: functional
[2] = Antioxidant activity assessed as reduction of hydroxyl radical-mediated BSA damage at 50 uM after 30 mins by SDS-PAGE; assay type: functional
[3] = Iron chelating activity of the compound assessed as reduction of Fe(2)-TPTZ complex formation by UV-visible spectrophotometry; assay type: physicochemical
[4] = system: Heme; experiment: Binding affinity to heme (unknown origin) by differential spectroscopy
[5] = Cytotoxicity against rat gastric mucosal cells assessed as cell viability at 10 to 100 uM after 16 hrs by MTT assay; assay type: cell-based, Gastric mucosa
[6] = system: Heme; experiment: Binding affinity to heme (unknown origin) at 2 to 20 uM by optical spectroscopy
[7] = system: Radical scavenging activity; experiment: Antioxidant activity assessed as DPPH free radical scavenging activity after 30 mins by spectrophotometry; assay type: functional
[8] = Antioxidant activity assessed as reduction of heme/H2O2-mediated BSA degradation at 50 uM after 1 hr by SDS-PAGE; assay type: functional
[9] = system: Heme; experiment: Binding affinity to heme (unknown origin)

Work on `O=C(O)c1cc(O)c(O)c(O)c1` yielded an Activity [1] of 33.9 µM.

For `COc1cc(NC(C)CCCNc2ccnc3cc(Cl)ccc23)c2ncccc2c1` (stereo not drawn), the Activity [2] was “Active”, the Kd [3] was 5.19 µM and the Kapp [4] was 2.3 ×10⁴ /M. For the same compound, the Kd [4] was 4.34 µM, the Activity [1] was 30 µM and the Activity [5] was “Non-toxic”. The Activity [6] was “Active”, the Activity [7] was “Dose-dependent effect” and the IC50 [7] was 23 µM. For the same compound, the Activity [8] was “Active”.

For `COc1cc(NC(C)CCCN)c2ncccc2c1` (stereo not drawn) [PRIMAQUINE], the Activity [5] was “Toxic”.

`CCN(CC)CCCC(C)Nc1ccnc2cc(Cl)ccc12` (stereo not drawn) gave a Ka [9] of 5.5 ×10⁴ /M.
